As usually defined, the inhibition is the change of the read-out against control, counted positive when it falls. A low value points to a response near the control. The IC50 is the concentration needed to halve the response being measured. Read a high IC50 as weaker potency in that assay.

SMILES strings stand for the structures.

Drawing on ChEMBL document CHEMBL4229463, “Regio- and stereospecific synthesis of rac-carbasugar-based cyclohexane pentols; Investigations of their α- and β-glucosidase inhibitions” (Bioorg Med Chem, 2018), this text covers inhibition and IC50 for six compounds.

For assay [1], the system named is Saccharomyces cerevisiae. In words: Inhibition of Saccharomyces cerevisiae alpha-glucosidase at 10 uM using PNPG as substrate after 3 mins by UV-vis spectrophotometric method relative to control.
The nature of assay [2]: Inhibition of Saccharomyces cerevisiae alpha-glucosidase using PNPG as substrate after 3 mins by UV-vis spectrophotometric method.
Assay [3] relates to Saccharomyces cerevisiae. In words: Inhibition of Saccharomyces cerevisiae alpha-glucosidase at 20 uM using PNPG as substrate after 3 mins by UV-vis spectrophotometric method relative to control.
In assay [4] the test system is Prunus dulcis. In words: Inhibition of almond beta-glucosidase at 20 uM using PNPG as substrate after 3 mins by UV-vis spectrophotometric method relative to control.
Assay [5] relates to Prunus dulcis. Briefly: Inhibition of almond beta-glucosidase at 120 uM using PNPG as substrate after 3 mins by UV-vis spectrophotometric method relative to control.
For assay [6], the system named is Prunus dulcis. Briefly: Inhibition of almond beta-glucosidase at 60 uM using PNPG as substrate after 3 mins by UV-vis spectrophotometric method relative to control.
In assay [7] the test system is Saccharomyces cerevisiae. Briefly: Inhibition of Saccharomyces cerevisiae alpha-glucosidase at 120 uM using PNPG as substrate after 3 mins by UV-vis spectrophotometric method relative to control.
Assay [8] relates to Saccharomyces cerevisiae. Briefly: Inhibition of Saccharomyces cerevisiae alpha-glucosidase at 60 uM using PNPG as substrate after 3 mins by UV-vis spectrophotometric method relative to control.
In assay [9] the test system is Prunus dulcis. Briefly: Inhibition of almond beta-glucosidase at 80 uM using PNPG as substrate after 3 mins by UV-vis spectrophotometric method relative to control.
In assay [10] the test system is Saccharomyces cerevisiae. In words: Inhibition of Saccharomyces cerevisiae alpha-glucosidase at 40 uM using PNPG as substrate after 3 mins by UV-vis spectrophotometric method relative to control.
In assay [11] the test system is Prunus dulcis. Briefly: Inhibition of almond beta-glucosidase at 40 uM using PNPG as substrate after 3 mins by UV-vis spectrophotometric method relative to control.
Assay [12] deals with Prunus dulcis. Briefly: Inhibition of almond beta-glucosidase at 10 uM using PNPG as substrate after 3 mins by UV-vis spectrophotometric method relative to control.
Assay [13] concerns Saccharomyces cerevisiae. Briefly: Inhibition of Saccharomyces cerevisiae alpha-glucosidase at 80 uM using PNPG as substrate after 3 mins by UV-vis spectrophotometric method relative to control.
Assay [14] can be described thus: Inhibition of almond beta-glucosidase using PNPG as substrate after 3 mins by UV-vis spectrophotometric method. Also noted: species or system Prunus dulcis.

Take `OC[C@H]1C[C@H](O)[C@@H](Cl)[C@H](O)[C@H]1CO` (racemic): the inhibition was determined as 3.98% in assay [1]; 7.9% in assay [3]; 11.7% in assay [4]; 26.4% in [5]; 21.1% in assay [6]; 56.4% in assay [7]. Further, the inhibition in assay [8] is 23%; in assay [9], 24.6%; in assay [10], 20.4%; in assay [11], 18.4%; in assay [12] it was 2.49%; in assay [13], 34.8%. Further, the midpoint of inhibition in assay [2], the IC50, lay at 155 µM.

For `OC[C@H]1C[C@H](O)[C@@H](O)[C@H](O)[C@H]1CO` (racemic), the inhibition came to 2.13% in assay [1]; 3.6% in assay [3]; 5.97% in assay [4]; 17.4% in assay [5]; 15.4% in assay [6]; 16% in assay [7]. Besides, the inhibition came to 8.5% in [8]; 17.7% in assay [9]; 7.83% in [10]; 10.9% in [11]; 2.24% in [12]; 10.8% in [13].

`OC[C@H]1C[C@H](Cl)[C@@H](O)[C@H](O)[C@H]1CO` (racemic): the inhibition in assay [1] amounted to 12.2%; in assay [3] it was 13.3%; in assay [4], 5.2%; in [5], 32.3%; in assay [6], 20.6%; in assay [7], 55%. In addition, the inhibition in [8] was determined as 26.1%; in assay [9], 24.1%; in [10], 15%; in assay [11], 19.1%; in assay [12] it was 1.99%; in assay [13] it was 38%. In addition, the IC50 in assay [2] came to 176 µM.

For the compound `OC[C@H]1C[C@@H](O)[C@H](O)[C@@H](O)[C@H]1CO` (racemic), the inhibition worked out at 10.4% in assay [1]; 12.1% in assay [3]; 5.22% in assay [4]; 36.8% in [5]; 30.8% in [6]; 44.6% in [7]. Also, the inhibition in assay [8] was 25.3%; in assay [9] it was 33.8%; in assay [10], 22.5%; in assay [11], 25.1%; in assay [12], 3.74%; in [13] it was 33.6%.

Consider `OC[C@H]1C[C@H](O)[C@H](O)[C@@H](O)[C@H]1CO` (racemic), for which the inhibition in [1] worked out at 3.42%; in assay [3] it was 5.59%; in assay [5], 23%; in assay [6] it was 4.29%; in assay [7] it was 16.3%; in assay [8] it was 8.21%. In addition, the inhibition amounted to 12.9% in [9], 7.93% in [10], 2% in assay [11] and 9.5% in assay [13].

For the compound `C[C@H]1O[C@H](O[C@H]2[C@H](O)[C@@H](O)[C@@H](O[C@H]3[C@H](O)[C@@H](O)C(O)O[C@@H]3CO)O[C@@H]2CO)[C@H](O)[C@@H](O)[C@@H]1N[C@H]1C=C(CO)[C@@H](O)[C@H](O)[C@H]1O` (some centres undefined) [ACARBOSE], the inhibition in assay [1] worked out at 22.8%; in assay [3], 30%; in assay [4], 25%; in [5], 68%; in assay [6], 52%; in assay [7] it was 78%. The inhibition in assay [8] is 46%; in assay [9] it was 58%; in [10] it was 33%; in assay [11], 40%; in [12] it was 17%; in assay [13] it was 60%. Moreover, the IC50 in assay [2] stood at 52.2 µM; in assay [14] it was 55.9 µM.
